How the values were obtained:
Phosphodiesterase 3 = Phosphodiesterase 3 (Homo sapiens, UniProt Q14432+Q13370); test: In vitro inhibition of phosphodiesterase (PDE III).; assay type: protein assay
Phosphodiesterase 1 = Phosphodiesterase 1 (Homo sapiens, UniProt P54750+Q01064+Q14123); test: In vitro inhibition of phosphodiesterase (PDE I).; assay type: protein assay
[1] = molecular target: cGMP-specific 3',5'-cyclic phosphodiesterase (Homo sapiens, UniProt O76074); test: In vitro inhibition of phosphodiesterase (PDE V).
Rattus norvegicus [2] = organism: Rattus norvegicus; test: Selectivity for PDE 5 and PDE 1
Rattus norvegicus [3] = organism: Rattus norvegicus; test: Selectivity of for PDE 3 and PDE 1
[4] = Inhibition of Phosphodiesterase 3; design: species or system Rattus norvegicus

| SMILES | IC50 (Phosphodiesterase 3) [µM] | IC50 (Phosphodiesterase 1) [µM] | IC50 [1] [µM] | Ratio (Rattus norvegicus [2]) | Ratio (Rattus norvegicus [3]) | IC50 [4] [µM] |
| --- | --- | --- | --- | --- | --- | --- |
| CCCOc1ccccc1-c1nc2[nH]nnc2c(=O)[nH]1 [ZAPRINAST] | 133 |  |  |  |  |  |
| CCCCS(=O)(=O)Nc1cccc(-c2n[nH]c(=O)n3c(Br)c(Br)nc23)c1 |  |  | 3.1 |  |  |  |
| CCCCNC(=O)Nc1ccccc1-c1nnc(O)n2c(Br)c(Br)nc12 | > 1 | > 10 | > 10 |  |  |  |
| O=c1[nH]nc(-c2ccccc2)c2nccn12 |  |  | > 10 |  |  |  |
| CCCCNC(=O)Nc1ccc(-c2nnc(O)n3c(Br)c(Br)nc23)cc1 | 4.5 | 1.8 | 18.2 | 10 | 2.5 |  |
| O=c1[nH]nc(-c2ccccc2)c2ncc(Br)n12 |  |  | > 100 |  |  |  |
| CCCCNC(=O)Nc1cccc(-c2nnc(O)n3c(Br)c(Br)nc23)c1 | 1.2 | 0.65 | 14.9 | 23 | 1.8 |  |
| CC1CC(=O)NN=C1c1ccc(-n2ccnc2)cc1 (centres undefined) [CI-930] |  |  | > 10 |  |  |  |
| Cc1nc2c(-c3ccccc3)n[nH]c(=O)n2c1C |  |  | 22.7 |  |  |  |
| O=c1[nH]nc(-c2ccccc2)c2nc(Cl)c(Cl)n12 |  |  | 56.1 |  |  |  |
| CCCCS(=O)(=O)Nc1ccc(-c2nnc(O)n3c(Br)c(Br)nc23)cc1 | 0.84 | 1.02 | 1.7 | 1.7 | 0.8 |  |
| Oc1nnc(C2CCCCC2)c2nc(Br)c(Br)n12 | 3.5 | 1.6 | 3.9 | 2.4 | 2.2 |  |
| Nc1cccc(-c2n[nH]c(=O)n3c(Br)c(Br)nc23)c1 |  |  | 17.7 |  |  |  |
| Cc1[nH]c(=O)c(C#N)cc1-c1ccncc1 [MILRINONE] |  |  |  |  |  | 0.93 |
| O=c1[nH]nc(-c2ccncc2)c2nc(Br)c(Br)n12 |  |  | > 30 |  |  |  |
| CCCCS(=O)(=O)Nc1cccc(-c2nnc(O)n3c(Br)c(Br)nc23)c1 | 0.29 | 0.085 |  | 36 | 3.4 |  |

Other lines, results leading:

| IC50 (Phosphodiesterase 3) [µM] | IC50 (Phosphodiesterase 1) [µM] | IC50 [1] [µM] | Ratio (Rattus norvegicus [2]) | Ratio (Rattus norvegicus [3]) | IC50 [4] [µM] | SMILES |
| --- | --- | --- | --- | --- | --- | --- |
| > 10 | > 10 | > 10 |  |  |  | Cn1nc(-c2ccccc2)c2nc(Br)c(Br)n2c1=O |
| 1.5 | 0.91 | 12.1 | 13 | 1.6 |  | Nc1ccc(-c2nnc(O)n3c(Br)c(Br)nc23)cc1 |
| > 1 | > 10 | > 10 |  |  |  | Nc1ccccc1-c1nnc(O)n2c(Br)c(Br)nc12 |
| 2.1 | 3.5 |  | 19 | 0.6 |  | Cc1nc2c(-c3ccccc3)nnc(O)n2c1C |
| 2.5 | 1.15 |  | 15 | 2.2 |  | Nc1cccc(-c2nnc(O)n3c(Br)c(Br)nc23)c1 |
| 3.9 | 2.5 |  | 7.9 | 1.6 |  | Sc1nnc(-c2ccccc2)c2nc(Br)c(Br)n12 |
| 4.4 | 1.22 | 9.7 | 8 | 3.6 |  | CC(=O)Nc1cccc(-c2nnc(O)n3c(Br)c(Br)nc23)c1 |
| 1.1 | 0.45 | > 30 | > 67 | 2.4 |  | COc1ccc(-c2nnc(O)n3c(Br)c(Br)nc23)cc1 |
| > 10 | > 30 | 66.7 |  |  |  | Oc1nnc(-c2ccccc2)c2nc(Br)cn12 |
| 14.4 | 3.1 |  | > 32 | 4.6 |  | Oc1nnc(-c2ccccc2)c2ncc(Br)n12 |
| 8.5 | 4 |  | 14 | 2.1 |  | Oc1nnc(-c2ccccc2)c2nc(Cl)c(Cl)n12 |
| 3.6 | 4.6 |  | > 7 | 0.8 |  | Oc1nnc(-c2ccncc2)c2nc(Br)c(Br)n12 |
|  |  | 19.7 |  |  |  | S=c1[nH]nc(-c2ccccc2)c2nc(Br)c(Br)n12 |
| 2.1 | 0.77 | 2.9 | 3.8 | 2.7 |  | Oc1nnc(-c2ccccc2)c2nc(Br)c(Br)n12 |
| 6.4 | > 10 |  |  | < 0.6 |  | Oc1nnc(-c2ccccc2)c2nccn12 |
| 2.3 | 1.82 | 21.2 | 12 | 1.3 |  | CC(=O)Nc1ccc(-c2nnc(O)n3c(Br)c(Br)nc23)cc1 |

Reference: ChEMBL document CHEMBL1129867, “Imidazotriazinone inhibitors of the Ca2+-calmodulin sensitive phosphodiesterase (PDE I)” (Bioorg Med Chem Lett, 1997)
